Measured values: US20220073496A1, “NOVEL QUINOLINE DERIVATIVE INHIBITOR” (Nanjing Transthera Biosciences Co., Ltd., priority 2018, published 2022)
Read-outs that look alike come from different tables or passages of the source.

Assays:
Rat PK evaluation = assay type: in vivo; details: SD rats; for Vz_obs iv (apparent distribution volume) / bioavailability / AUC(0-t) / clearance / half-life: n = 3; for bioavailability / AUC(0-t) / clearance / half-life / Tmax: rat, plasma; for bioavailability: read-out: F % (absolute bioavailability); for clearance: read-out: Cl_obs iv (clearance rate) (converted); for Tmax: n = 3, median, read-out: Tmax po (time to peak plasma concentration)
Method: Assay 2: Rat PK Evaluation for the Compounds of the Present Invention
Animal Administration and Sample Collection:
(§1) The test compounds 14, 15, 16, 20, 29, 30, 31, 32, 33, 34, 36, 37, 47 and 48 were dissolved in 5% DMSO+20% (30% solutol)+75% saline to prepare the compound solutions. Each of the compound solutions was intragastrically administered to SD rats at a dose of 5.0 mg/kg. The time points of blood collection were: 15 minutes, 30 minutes, 1 hour, 2 hours, 4 hours, 6 hours, 8 hours, 24 hours, 30 hours, and 48 hours.
The test compounds 38, 39, 40 and 41 were dissolved in 5% NMP+5% Tween-80+90% saline to prepare the compound solutions. Each of the compound solutions was intragastrically administered to SD rats at a dose of 5.0 mg/kg. The time points of blood collection were: 15 minutes, 30 minutes, 1 hour, 2 hours. 4 hours, 6 hours, 8 hours, 24 hours, 30 hours, and 48 hours.
as §1, with “was” for “was intragastrically”, “administered by intravenous bolus injection” for “administered”, “1” for “5.0”, “were: 5 minutes,” for “were:”, “hours,” for “hours, 30 hours,”
The test compounds 38, 39, 40 and 41 were dissolved in 5% NMP+5% Tween-80+90% saline to prepare the compound solutions. Each of the compound solutions was administered by intravenous bolus injection to SD rats at a dose of 1 mg/kg. The time points of blood collection were: 5 minutes, 15 minutes, 30 minutes, 1 hour, 2 hours, 4 hours, 6 hours, 8 hours, 24 hours, and 48 hours.
The animal was fixed. The tail was heated in a water bath pot 10 minutes before each time point. About 100 μL of blood was collected through the tail vein. The blood was collected and placed in an anti-coagulation tube containing EDTA-K2. The blood sample was centrifuged at 8000 rpm for 6 minutes at 4° C. to obtain a plasma sample. The plasma was prepared within 30 minutes after the blood collection. The plasma was stored in a −80° C. refrigerator before testing.
The sample to be tested was taken out from the −80° C. refrigerator, naturally melted at room temperature and vortexed for 5 minutes. 20 μL of plasma sample was accurately pipetted into a 1.5 mL centrifuge tube. 200 μL of an internal standard working solution (a solution of tolbutamide in methanol) having a concentration of 100 ng/mL was added and mixed well. The mixture was vortexed for 5 minutes, and centrifuged at 12000 rpm for 5 minutes. 50 μL of the supernatant was accurately pipetted into a 96-well plate pre-filled with 150 μL/well of water. The plate was vortexed for 5 minutes and mixed well, and then the LC-MS/MS determination and analysis were performed.
The concentration of the test substance was output using Analyst 1.6.3 from AB Company. Parameters such as mean, standard deviation, and coefficient of variation were calculated with Microsoft Excel (direct outputs from Analyst 1.6.3 were not calculated), and the PK parameters were calculated using Pharsight Phoenix 6.1 software NCA (Tmax was the median).

CSF1R (h) = target: T1, CSF1R (h) (Homo sapiens, UniProt P07333); test: Enzymatic activity test, CSF1R (h); assay type: biochemical; details: 10 μM [γ-33P]-ATP, 40 minutes, room temperature
T1 construct: purchased
Method: Assay 3: Enzymatic Activity Test of the Compounds of the Present Invention
Test substances: the compounds of the present invention, wherein the structures and preparations thereof were as described above.
(1) Preparation of the Compound Stock Solution
The compound was dissolved in 100% DMSO to prepare a stock solution with a maximum concentration of 500 μM.
(2) Preparation of the Compound Working Solution
The compound stock solution was diluted to final concentrations of 500, 150, 50, 15, 5, 1.5, 0.5, 0.15 and 0.05 μM to become the compound working solutions (50×).
(3) Preparation of Different Enzyme Reaction Solutions
The enzymatic reaction was activated by using 10 mM magnesium acetate and 10 μM [γ-^33P]-ATP to form an Mg/ATP mixed solution.
In a 384-well plate, the compound working solution was added to final concentrations of 10000, 3000, 1000, 300, 100, 30, 10, 3, and 1 nM. Then different enzyme reaction solutions prepared according to the above conditions were added. The incubation was carried out for 40 minutes at room temperature. The test was terminated by the addition of a 0.5% phosphoric acid solution. 10 μL of the reaction solution was taken and dropped to the P30 filter paper. […] The grayscale analysis of the results was performed using Image J software and the IC50 values were calculated using GraphPad 5.0 software.

[1] = IV 1 mg/kg, read-out: AUClast iv (area under the drug-time curve from 0 to 48 hours)
[2] = IV 1 mg/kg, read-out: tz1/2 iv (terminal elimination half-life) (converted)
[3] = PO 5 mg/kg, read-out: AUClast po (area under the drug-time curve from 0 to 48 hours)
[4] = PO 5 mg/kg, read-out: tz1/2 po (terminal elimination half-life) (converted)

T1 sequence (P07333 20-972): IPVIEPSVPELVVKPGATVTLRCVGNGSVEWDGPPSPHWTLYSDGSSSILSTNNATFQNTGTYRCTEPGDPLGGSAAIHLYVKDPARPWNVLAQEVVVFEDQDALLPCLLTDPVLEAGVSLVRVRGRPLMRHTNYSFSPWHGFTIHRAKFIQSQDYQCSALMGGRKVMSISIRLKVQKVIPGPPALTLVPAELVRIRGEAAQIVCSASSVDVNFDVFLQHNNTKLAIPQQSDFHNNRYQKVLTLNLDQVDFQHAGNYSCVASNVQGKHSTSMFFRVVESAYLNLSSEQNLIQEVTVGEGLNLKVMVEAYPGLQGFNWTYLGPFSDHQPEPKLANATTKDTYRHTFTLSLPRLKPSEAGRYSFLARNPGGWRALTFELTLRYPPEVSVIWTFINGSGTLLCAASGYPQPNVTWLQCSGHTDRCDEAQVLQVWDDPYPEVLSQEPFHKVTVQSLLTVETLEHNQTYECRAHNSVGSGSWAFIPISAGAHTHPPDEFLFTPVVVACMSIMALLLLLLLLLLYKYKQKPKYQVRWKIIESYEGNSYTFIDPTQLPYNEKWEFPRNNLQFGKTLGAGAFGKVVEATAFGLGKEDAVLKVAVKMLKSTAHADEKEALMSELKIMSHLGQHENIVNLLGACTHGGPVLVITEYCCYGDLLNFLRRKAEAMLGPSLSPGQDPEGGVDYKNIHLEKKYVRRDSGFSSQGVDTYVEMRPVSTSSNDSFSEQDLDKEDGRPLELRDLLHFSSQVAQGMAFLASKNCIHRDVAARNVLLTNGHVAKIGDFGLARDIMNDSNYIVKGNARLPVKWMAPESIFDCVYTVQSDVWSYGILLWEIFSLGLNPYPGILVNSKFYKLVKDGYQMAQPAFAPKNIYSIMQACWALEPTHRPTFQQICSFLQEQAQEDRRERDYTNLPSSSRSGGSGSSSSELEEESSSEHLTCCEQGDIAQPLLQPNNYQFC

| Vz_obs iv (apparent distribution volume) (Rat PK evaluation; IV 1 mg/kg) [L/kg] | bioavailability (Rat PK evaluation; IV 1 mg/kg, PO 5 mg/kg) [%] | AUC(0-t) (Rat PK evaluation; [1]) [ng·h/mL] | clearance (Rat PK evaluation; IV 1 mg/kg) [mL/min/kg] | half-life (Rat PK evaluation; [2]) [h] | Tmax (Rat PK evaluation; PO 5 mg/kg) [h] | AUC(0-t) (Rat PK evaluation; [3]) [ng·h/mL] | half-life (Rat PK evaluation; [4]) [h] | IC50 (CSF1R (h)) [nM] | Compound |
| --- | --- | --- | --- | --- | --- | --- | --- | --- | --- |
| 1.23 | 78.9 | 18100 | 0.783 | 18.5 |  | 67400 | 20.5 | 38 | COc1cc2nccc(Oc3ccc(NC(=O)c4nn(C(C)C)cc(-c5ccc(F)cc5)c4=O)nc3)c2cc1OC [Compound 15, N-(5-((6,7-dimethoxyquinolin-4-yl)oxy)pyridin-2-yl)-5-(4-fluorophenyl)-1-isopropyl-4-oxo-1,4-dihydropyridazine-3-carboxamide] |
| 0.42 | 59.1 | 78600 | 0.6 | 13.7 | 4 | 246000 | 12.2 | 51 | COc1cc2nccc(Oc3ccc(NC(=O)c4nn(C(C)C)cc(-c5ccc(F)cc5)c4=O)cn3)c2cc1OC [Compound 29, N-(6-((6,7-dimethoxyquinolin-4-yl)oxy)pyridin-3-yl)-1-isopropyl-4-oxo-5-para-fluorophenyl-1,4-dihydropyridazine-3-carboxamide] |
| 0.12 | 35.6 | 48600 | 0.35 | 4.13 | 1 | 86400 | 5.67 | 61 | COc1cc2nccc(Oc3cnc(NC(=O)c4nn(C(C)C)cc(-c5ccc(F)cc5)c4=O)nc3)c2cc1OC [Compound 16, N-(5-((6,7-dimethoxyquinolin-4-yl)oxy)pyrimidine-2-yl)-5-(4-fluorophenyl)-1-isopropyl-4-oxo-1,4-dihydropyridazine-3-carboxamide] |

More lines, now with the values behind:

| Compound | Vz_obs iv (apparent distribution volume) (Rat PK evaluation; IV 1 mg/kg) [L/kg] | bioavailability (Rat PK evaluation; IV 1 mg/kg, PO 5 mg/kg) [%] | AUC(0-t) (Rat PK evaluation; [1]) [ng·h/mL] | clearance (Rat PK evaluation; IV 1 mg/kg) [mL/min/kg] | half-life (Rat PK evaluation; [2]) [h] | Tmax (Rat PK evaluation; PO 5 mg/kg) [h] | AUC(0-t) (Rat PK evaluation; [3]) [ng·h/mL] | half-life (Rat PK evaluation; [4]) [h] | IC50 (CSF1R (h)) [nM] |
| --- | --- | --- | --- | --- | --- | --- | --- | --- | --- |
| COc1cc2nccc(Oc3ccc(NC(=O)c4nn(C5CC5)cc(-c5ccc(F)cc5)c4=O)nc3)c2cc1OC [Compound 31] | 0.14 | 27.7 | 224000 | 0.05 | 32.6 | 4 | 310000 | 19.2 | 20 |
| COc1cc2nccc(Oc3cnc(NC(=O)c4cn(C(C)C)cc(-c5ccc(F)cc5)c4=O)nc3)c2cc1OC [Compound 20, N-(5-((6,7-dimethoxyquinolin-4-y)oxy)pyrimidine-2-yl)-5-(4-fluorophenyl)-1-isopropyl-4-oxo-1,4-dihydropyridin-3-carboxamide] | 0.18 | 53.3 | 29100 | 0.667 | 3.1 | 6 | 77900 | 5.4 | 78 |
